From PubChem BioAssay (NCI)
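Five compound concentrations were applied to cells in 96-well plates for 48 hours; endpoints were derived by simple linear interpolation of the resulting dose-response curve. At the GI50, growth is halved. At the TGI there is no net growth.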

Columns and labels:
Test in all cases: inhibition of tumour cell growth, NCI panel, 48 h
NCI-H23 lung = tested on: NCI-H23 lung
786-0 renal = tested on: 786-0 renal
MOLT-4 leukemia = tested on: MOLT-4 leukemia
SNB-75 CNS = tested on: SNB-75 CNS
SK-MEL-2 melanoma = tested on: SK-MEL-2 melanoma
MDA-MB-435 = tested on: MDA-MB-435
RXF 393 renal = tested on: RXF 393 renal
SR leukemia = tested on: SR leukemia
A498 renal = tested on: A498 renal
SF-295 CNS = tested on: SF-295 CNS
MDA-MB-231 breast = tested on: MDA-MB-231 breast
SF-539 CNS = tested on: SF-539 CNS
A549 NSCLC = tested on: A549 NSCLC
CCRF-CEM leukemia = tested on: CCRF-CEM leukemia
IGROV1 ovarian = tested on: IGROV1 ovarian
HOP-92 NSCLC = tested on: HOP-92 NSCLC
U251 CNS = tested on: U251 CNS
SF-268 CNS = tested on: SF-268 CNS
OVCAR-8 ovarian = tested on: OVCAR-8 ovarian
SNB-19 CNS = tested on: SNB-19 CNS
OVCAR-3 ovarian = tested on: OVCAR-3 ovarian
COLO 205 colon = tested on: COLO 205 colon
HL-60(TB) leukemia = tested on: HL-60(TB) leukemia
ACHN renal = tested on: ACHN renal
NCI-H522 lung = tested on: NCI-H522 lung
CAKI-1 renal = tested on: CAKI-1 renal
NCI-H226 lung = tested on: NCI-H226 lung
SK-MEL-5 melanoma = tested on: SK-MEL-5 melanoma
HOP-62 NSCLC = tested on: HOP-62 NSCLC
LOX IMVI melanoma = tested on: LOX IMVI melanoma
HCC-2998 colon = tested on: HCC-2998 colon
SW-620 colon = tested on: SW-620 colon
MALME-3M melanoma = tested on: MALME-3M melanoma
OVCAR-4 ovarian = tested on: OVCAR-4 ovarian
HT29 colon = tested on: HT29 colon
NCI-H460 lung = tested on: NCI-H460 lung
SK-MEL-28 melanoma = tested on: SK-MEL-28 melanoma
UACC-257 melanoma = tested on: UACC-257 melanoma
KM12 colon = tested on: KM12 colon
HCT-116 colon = tested on: HCT-116 colon
NCI/ADR-RES ovarian = tested on: NCI/ADR-RES ovarian
EKVX NSCLC = tested on: EKVX NSCLC
UO-31 renal = tested on: UO-31 renal
TK-10 renal = tested on: TK-10 renal
K-562 leukemia = tested on: K-562 leukemia
PC-3 prostate = tested on: PC-3 prostate
HCT-15 colon = tested on: HCT-15 colon
DU-145 prostate = tested on: DU-145 prostate
HS 578T breast = tested on: HS 578T breast
UACC-62 melanoma = tested on: UACC-62 melanoma
SN12C renal = tested on: SN12C renal
BT-549 breast = tested on: BT-549 breast
M14 melanoma = tested on: M14 melanoma
OVCAR-5 ovarian = tested on: OVCAR-5 ovarian
SK-OV-3 ovarian = tested on: SK-OV-3 ovarian
RPMI-8226 leukemia = tested on: RPMI-8226 leukemia

SMILES: O=C1Nc2cc(-c3ccc(NS(=O)(=O)c4ccc(F)c(Cl)c4)cc3)ccc2/C1=C/c1ccc[nH]1
- GI50 (NCI-H23 lung): 0.533 µM
- TGI (NCI-H23 lung): 8.49 µM
- GI50 (786-0 renal): 5.54 µM
- TGI (786-0 renal): 27 µM
- GI50 (MOLT-4 leukemia): 2.33 µM
- TGI (MOLT-4 leukemia): 16.1 µM
- GI50 (SNB-75 CNS): 0.95 µM
- TGI (SNB-75 CNS): 14.4 µM
- GI50 (SK-MEL-2 melanoma): 18.2 µM
- TGI (SK-MEL-2 melanoma): > 100 µM
- GI50 (MDA-MB-435): 6.52 µM
- TGI (MDA-MB-435): 25.8 µM
- GI50 (RXF 393 renal): 3.12 µM
- TGI (RXF 393 renal): 16.6 µM
- GI50 (SR leukemia): 2.2 µM
- TGI (SR leukemia): 17.6 µM
- GI50 (A498 renal): 1.93 µM
- TGI (A498 renal): 15.5 µM
- GI50 (SF-295 CNS): 4.68 µM
- TGI (SF-295 CNS): 23.2 µM
- GI50 (MDA-MB-231 breast): 4.86 µM
- TGI (MDA-MB-231 breast): 21.3 µM
- GI50 (SF-539 CNS): 2.67 µM
- TGI (SF-539 CNS): 14.9 µM
- GI50 (A549 NSCLC): 2.35 µM
- TGI (A549 NSCLC): 16.8 µM
- GI50 (CCRF-CEM leukemia): 3.28 µM
- TGI (CCRF-CEM leukemia): 18.9 µM
- GI50 (IGROV1 ovarian): 11.4 µM
- TGI (IGROV1 ovarian): 39.9 µM
- GI50 (HOP-92 NSCLC): 4.68 µM
- TGI (HOP-92 NSCLC): 20.3 µM
- GI50 (U251 CNS): 11.5 µM
- TGI (U251 CNS): 26.1 µM
- GI50 (SF-268 CNS): 8.27 µM
- TGI (SF-268 CNS): 29.2 µM
- GI50 (OVCAR-8 ovarian): 12.3 µM
- TGI (OVCAR-8 ovarian): 32.1 µM
- GI50 (SNB-19 CNS): 13.7 µM
- TGI (SNB-19 CNS): 35.5 µM
- GI50 (OVCAR-3 ovarian): 2.86 µM
- TGI (OVCAR-3 ovarian): 17.1 µM
- GI50 (COLO 205 colon): 5.07 µM
- TGI (COLO 205 colon): 18.9 µM
- GI50 (HL-60(TB) leukemia): 3.34 µM
- TGI (HL-60(TB) leukemia): 30.4 µM
- GI50 (ACHN renal): 3.52 µM
- TGI (ACHN renal): 14.6 µM
- GI50 (NCI-H522 lung): 4.19 µM
- TGI (NCI-H522 lung): 22.4 µM
- GI50 (CAKI-1 renal): 4.63 µM
- TGI (CAKI-1 renal): 18.6 µM
- GI50 (NCI-H226 lung): 3.86 µM
- TGI (NCI-H226 lung): 26.1 µM
- GI50 (SK-MEL-5 melanoma): 11.3 µM
- TGI (SK-MEL-5 melanoma): 35.3 µM
- GI50 (HOP-62 NSCLC): 10.3 µM
- TGI (HOP-62 NSCLC): 26.3 µM
- GI50 (LOX IMVI melanoma): 3.78 µM
- TGI (LOX IMVI melanoma): 16.2 µM
- GI50 (HCC-2998 colon): 3.23 µM
- TGI (HCC-2998 colon): 20.4 µM
- GI50 (SW-620 colon): 3.46 µM
- TGI (SW-620 colon): 17 µM
- GI50 (MALME-3M melanoma): 10.5 µM
- TGI (MALME-3M melanoma): 23.2 µM
- GI50 (OVCAR-4 ovarian): 2 µM
- TGI (OVCAR-4 ovarian): 18.8 µM
- GI50 (HT29 colon): 3.31 µM
- TGI (HT29 colon): 17.8 µM
- GI50 (NCI-H460 lung): 0.393 µM
- TGI (NCI-H460 lung): 1.98 µM
- GI50 (SK-MEL-28 melanoma): 6.91 µM
- TGI (SK-MEL-28 melanoma): 29.2 µM
- GI50 (UACC-257 melanoma): 3.96 µM
- TGI (UACC-257 melanoma): 21.3 µM
- GI50 (KM12 colon): 2.13 µM
- TGI (KM12 colon): 7.6 µM
- GI50 (HCT-116 colon): 3.57 µM
- TGI (HCT-116 colon): 33.3 µM
- GI50 (NCI/ADR-RES ovarian): 7.98 µM
- TGI (NCI/ADR-RES ovarian): 29.9 µM
- GI50 (EKVX NSCLC): 0.0918 µM
- TGI (EKVX NSCLC): 15.9 µM
- GI50 (UO-31 renal): 3.22 µM
- TGI (UO-31 renal): 21 µM
- GI50 (TK-10 renal): 5.8 µM
- TGI (TK-10 renal): 25.8 µM
- GI50 (K-562 leukemia): 3.79 µM
- TGI (K-562 leukemia): > 100 µM
- GI50 (PC-3 prostate): 3.11 µM
- TGI (PC-3 prostate): 18 µM
- GI50 (HCT-15 colon): 3.46 µM
- TGI (HCT-15 colon): 17.6 µM
- GI50 (DU-145 prostate): 3.74 µM
- TGI (DU-145 prostate): 15.2 µM
- GI50 (HS 578T breast): 2.96 µM
- TGI (HS 578T breast): 19.2 µM
- GI50 (UACC-62 melanoma): 4.9 µM
- TGI (UACC-62 melanoma): 27.9 µM
- GI50 (SN12C renal): 11.8 µM
- TGI (SN12C renal): 31 µM
- GI50 (BT-549 breast): 4 µM
- TGI (BT-549 breast): 26.3 µM
- GI50 (M14 melanoma): 5.58 µM
- TGI (M14 melanoma): 27.2 µM
- GI50 (OVCAR-5 ovarian): 3.53 µM
- TGI (OVCAR-5 ovarian): 19.4 µM
- GI50 (SK-OV-3 ovarian): 4.07 µM
- TGI (SK-OV-3 ovarian): 29.7 µM
- GI50 (RPMI-8226 leukemia): 2.6 µM
- TGI (RPMI-8226 leukemia): 21.9 µM
